From patent US20260355129A1, “5-HT2C AGONISTS FOR TREATING PRADER-WILLI SYNDROME (PWS), METABOLIC SYNDROMES, AND OTHER DISEASES AND DISORDERS” (Park City Bio, LLC, priority 2025, published 2026)

Tests used:
Format in all cases: cell-based
Settings in all cases: HEK-293T, HEK293T, normalized to % 5-HT stimulation, class symbols (Table 5)
5-HT2A receptor = molecular target: T1, 5-HT2A receptor (Homo sapiens, UniProt P28223); experiment: 5-HT2 receptor-mediated Gq activation, Gq/y1 dissociation by BRET, 5-HT2A
T1 construct: expressed in transfected cells; host or cells: HEK293T
T1 sequence (P28223 whole entry): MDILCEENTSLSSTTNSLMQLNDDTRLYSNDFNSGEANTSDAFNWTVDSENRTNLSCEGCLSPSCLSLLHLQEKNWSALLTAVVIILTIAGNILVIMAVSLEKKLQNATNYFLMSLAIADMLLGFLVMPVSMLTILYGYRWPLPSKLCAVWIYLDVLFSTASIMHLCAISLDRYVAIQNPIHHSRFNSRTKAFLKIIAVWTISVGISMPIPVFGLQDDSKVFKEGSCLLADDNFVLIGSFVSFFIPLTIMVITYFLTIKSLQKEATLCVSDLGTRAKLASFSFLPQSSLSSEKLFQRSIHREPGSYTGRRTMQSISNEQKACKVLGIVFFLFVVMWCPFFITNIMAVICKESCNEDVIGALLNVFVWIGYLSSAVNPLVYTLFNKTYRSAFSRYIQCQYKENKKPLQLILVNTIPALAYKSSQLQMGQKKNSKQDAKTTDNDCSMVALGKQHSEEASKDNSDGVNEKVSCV
From the text: (§1) To measure 5-HT2 receptor-mediated Gq activation via Gq/y1 dissociation as measured by Bioluminescence Resonance Energy Transfer (BRET) (McCorvy J D, Wacker D, Wang S, Agegnehu B, Liu J, Lansu K, Tribo A R, Olsen R H J, Che T, Jin J, Roth B L. Structural determinants of 5-HT2B receptor activation and biased agonism. Nat Struct Mo/Biol. 2018; 25(9): 787-96), HEK293T cells were sub-cultured in Dulbecco's Modified Eagle Medium (DMEM) supplemented with 10% dialyzed fetal bovine serum (FBS) and were co-transfected in a 1:1:1:1 ratio with Rluc8-fused human Gaq (Gaq-Rluc8), a GFP2-fused to the C-terminus of human Gy1(Gy1-GFP2), human G131, and 5-HT2 receptor using TransiT-2020. […] Substrate addition occurred 15 minutes before reading and utilized 10 μL of the Rluc substrate coelenterazine 400a for Gq dissociation BRET^2 (Prolume/Nanolight, 5 μM final concentration). Plates were read for luminescence at 400 nm and fluorescent GFP2 emission at 510 nm at 1 second per well using a Mithras LB940 multimode microplate reader (e.g. one provided by Berthold). The BRET ratios of fluorescence/luminescence were calculated per well and were plotted as a function of drug concentration using Graphpad Prism 8 (Graphpad Software Inc., San Diego, CA).

5-HT2B receptor = molecular target: T2, 5-HT2B receptor (Homo sapiens, UniProt P41595); experiment: 5-HT2 receptor-mediated Gq activation, Gq/y1 dissociation by BRET, 5-HT2B
T2 construct: expressed in transfected cells; host or cells: HEK293T
T2 sequence (P41595 whole entry): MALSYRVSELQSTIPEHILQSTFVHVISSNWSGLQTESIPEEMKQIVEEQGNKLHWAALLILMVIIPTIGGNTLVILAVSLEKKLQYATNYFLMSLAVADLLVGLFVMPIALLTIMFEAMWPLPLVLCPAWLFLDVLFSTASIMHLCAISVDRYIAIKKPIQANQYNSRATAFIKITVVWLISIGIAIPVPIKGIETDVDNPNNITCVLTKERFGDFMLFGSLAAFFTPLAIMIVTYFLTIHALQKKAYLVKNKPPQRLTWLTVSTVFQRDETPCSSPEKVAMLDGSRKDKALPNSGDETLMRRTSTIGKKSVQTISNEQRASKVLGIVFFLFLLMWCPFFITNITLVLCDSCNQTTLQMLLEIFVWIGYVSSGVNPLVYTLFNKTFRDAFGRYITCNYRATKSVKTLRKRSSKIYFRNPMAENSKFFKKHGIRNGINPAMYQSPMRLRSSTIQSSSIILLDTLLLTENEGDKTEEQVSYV
From the text: as §1

5-HT2C receptor = molecular target: T3, 5-HT2C receptor (Homo sapiens, UniProt P28335); experiment: 5-HT2 receptor-mediated Gq activation, Gq/y1 dissociation by BRET, 5-HT2C
T3 construct: expressed in transfected cells; host or cells: HEK293T
T3 sequence (P28335 33-458): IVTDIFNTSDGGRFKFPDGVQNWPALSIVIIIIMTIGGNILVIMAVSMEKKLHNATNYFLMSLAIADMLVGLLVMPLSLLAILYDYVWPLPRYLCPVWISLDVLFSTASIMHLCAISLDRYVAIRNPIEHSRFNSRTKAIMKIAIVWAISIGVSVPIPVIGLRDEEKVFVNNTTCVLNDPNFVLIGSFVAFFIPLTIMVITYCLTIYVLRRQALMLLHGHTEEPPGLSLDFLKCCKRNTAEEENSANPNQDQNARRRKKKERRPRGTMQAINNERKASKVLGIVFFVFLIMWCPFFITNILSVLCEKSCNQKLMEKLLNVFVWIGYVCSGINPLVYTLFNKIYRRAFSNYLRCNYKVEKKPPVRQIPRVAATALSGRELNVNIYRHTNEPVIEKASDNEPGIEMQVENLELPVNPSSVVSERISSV
From the text: as §1

What does the source list for CNC[C@H]1C[C@@H]1c1cc(F)ccc1OC?
Emax (5-HT2A receptor): 50 to 80%; Emax (5-HT2B receptor): 50 to 80%; Emax (5-HT2C receptor): 50 to 80%

Which results are given for CNCC1CC1c1cc(F)ccc1SC (centres unmarked)?
Emax (5-HT2A receptor): 50 to 80%; Emax (5-HT2C receptor): 50 to 80%
